Source: ChEMBL document CHEMBL1201862, “PubChem BioAssay data set” (2004)
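Results reflect a 48-hour exposure of cells in 96-well plates to compound at five concentrations. Abbreviation: GI50, concentration required for 50% inhibition of growth.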 The source made the active and inactive calls. No stated cut-off is given here; in the data, active = GI50 up to about 1.1 µM and inactive = higher.

Assays:
Assay in all cases: NCI tumour cell line growth inhibition, 48 h
[1] = system: U-251
[2] = system: OVCAR-5
[3] = system: SK-MEL-2
[4] = system: NCI-H226
[5] = system: SN12C
[6] = system: SF-295
[7] = system: SW-620
[8] = system: LOX IMVI
[9] = system: BT-549
[10] = system: M14
[11] = system: HCT-15
[12] = system: SR
[13] = system: CAKI-1
[14] = system: HT-29
[15] = system: OVCAR-4
[16] = system: SK-OV-3
[17] = system: K562
[18] = system: TK-10
[19] = system: COLO 205
[20] = system: UACC-257
[21] = system: CCRF-CEM
[22] = system: A549
[23] = system: NCI-H522
[24] = system: OVCAR-3
[25] = system: ACHN
[26] = system: SK-MEL-28
[27] = system: RXF 393
[28] = system: SK-MEL-5
[29] = system: IGROV-1
[30] = system: HCC 2998
[31] = system: MOLT-4
[32] = system: SNB-19
[33] = system: MDA-N
[34] = system: A498
[35] = system: EKVX
[36] = system: T47D
[37] = system: PC-3
[38] = system: HOP-62
[39] = system: UO-31
[40] = system: MCF7
[41] = system: MDA-MB-435
[42] = system: NCI-H23
[43] = system: HL-60
[44] = system: Hs-578T
[45] = system: UACC-62
[46] = system: SF-268
[47] = system: KM12
[48] = system: RPMI-8226
[49] = system: NCI-H460
[50] = system: 786-0
[51] = system: DU-145
[52] = system: SF-539
[53] = system: HCT-116
[54] = system: NCI/ADR-RES
[55] = system: Malme-3M
[56] = system: MDA-MB-231
[57] = system: HOP-92
[58] = system: OVCAR-8
[59] = system: SNB-75

With `CC(=O)N[C@@H](Cc1ccc(O)cn1)C(=O)NCc1cccc(Cl)c1` the GI50 [1] was > 100 µM (inactive), the GI50 [2] was > 100 µM (inactive) and the GI50 [3] was > 100 µM (inactive). The GI50 [4] was > 100 µM (inactive), the GI50 [5] was > 100 µM (inactive) and the GI50 [6] was > 100 µM (inactive). The GI50 [7] was > 100 µM (inactive), the GI50 [8] was > 100 µM (inactive) and the GI50 [9] was > 100 µM (inactive). The GI50 [10] was > 100 µM (inactive), the GI50 [11] was > 100 µM and the GI50 [12] was > 100 µM (inactive). The GI50 [13] was > 100 µM (inactive), the GI50 [14] was > 100 µM (inactive) and the GI50 [15] was > 100 µM (inactive). For the same compound, the GI50 [16] was > 100 µM (inactive), the GI50 [17] was > 100 µM (inactive) and the GI50 [18] was > 100 µM (inactive). For the same compound, the GI50 [19] was > 100 µM (inactive), the GI50 [20] was > 100 µM (inactive) and the GI50 [21] was > 100 µM (inactive). The GI50 [22] was > 100 µM (inactive), the GI50 [23] was > 100 µM (inactive) and the GI50 [24] was > 100 µM (inactive). The GI50 [25] was > 100 µM (inactive), the GI50 [26] was > 100 µM (inactive) and the GI50 [27] was > 100 µM (inactive). For the same compound, the GI50 [28] was > 100 µM (inactive), the GI50 [29] was > 100 µM (inactive) and the GI50 [30] was > 100 µM (inactive). For the same compound, the GI50 [31] was > 100 µM (inactive), the GI50 [32] was > 100 µM (inactive) and the GI50 [33] was > 100 µM (inactive). The GI50 [34] was > 100 µM (inactive), the GI50 [35] was > 100 µM (inactive) and the GI50 [36] was > 100 µM (inactive). For the same compound, the GI50 [37] was > 100 µM (inactive), the GI50 [38] was > 100 µM (inactive) and the GI50 [39] was > 100 µM (inactive). For the same compound, the GI50 [40] was > 100 µM (inactive), the GI50 [41] was > 100 µM (inactive) and the GI50 [42] was > 100 µM (inactive). The GI50 [43] was 37.8 µM (inactive), the GI50 [44] was > 100 µM (inactive) and the GI50 [45] was > 100 µM (inactive). For the same compound, the GI50 [46] was > 100 µM (inactive), the GI50 [47] was > 100 µM (inactive) and the GI50 [48] was > 100 µM (inactive). The GI50 [49] was > 100 µM (inactive), the GI50 [50] was > 100 µM (inactive) and the GI50 [51] was > 100 µM (inactive). For the same compound, the GI50 [52] was > 100 µM (inactive), the GI50 [53] was > 100 µM (inactive) and the GI50 [54] was > 100 µM (inactive).
In the case of `O=c1c(C(c2ccc3ccccc3c2)c2c(O)oc3ccccc3c2=O)c(O)oc2ccccc12`, the GI50 [1] is reported as 16.6 µM (inactive), the GI50 [2] is reported as 28.1 µM (inactive) and the GI50 [3] is reported as 34.5 µM (inactive). For the same compound, the GI50 [4] was 26.5 µM (inactive), the GI50 [5] was 20.6 µM (inactive) and the GI50 [6] was 50.4 µM (inactive). For the same compound, the GI50 [7] was 31.9 µM (inactive), the GI50 [8] was 34.6 µM (inactive) and the GI50 [9] was 24.8 µM (inactive). The GI50 [10] was 25.9 µM (inactive), the GI50 [11] was 20 µM and the GI50 [55] was 17.7 µM (inactive). For the same compound, the GI50 [13] was 22.9 µM (inactive), the GI50 [14] was 18.5 µM (inactive) and the GI50 [15] was 26.7 µM (inactive). The GI50 [16] was 50.9 µM (inactive), the GI50 [17] was 50.6 µM (inactive) and the GI50 [18] was 61.8 µM (inactive). The GI50 [19] was 30.5 µM (inactive), the GI50 [20] was 51.5 µM (inactive) and the GI50 [21] was 46.5 µM (inactive). The GI50 [22] was 33 µM (inactive), the GI50 [23] was 17.5 µM (inactive) and the GI50 [24] was 32.5 µM (inactive). For the same compound, the GI50 [25] was 20.6 µM (inactive), the GI50 [26] was 28.6 µM (inactive) and the GI50 [27] was 46.7 µM (inactive). For the same compound, the GI50 [28] was 22.6 µM (inactive), the GI50 [29] was 30.8 µM (inactive) and the GI50 [56] was 22.6 µM (inactive). For the same compound, the GI50 [30] was 17.9 µM (inactive), the GI50 [31] was 22.4 µM (inactive) and the GI50 [32] was 46.3 µM (inactive). For the same compound, the GI50 [33] was 27.4 µM (inactive), the GI50 [34] was 36.3 µM (inactive) and the GI50 [35] was 31.9 µM (inactive). For the same compound, the GI50 [36] was 39.1 µM (inactive), the GI50 [37] was 34.6 µM (inactive) and the GI50 [38] was 39.3 µM (inactive). For the same compound, the GI50 [57] was 29.2 µM (inactive), the GI50 [39] was 17 µM (inactive) and the GI50 [40] was 37.1 µM (inactive). The GI50 [58] was 16.1 µM (inactive), the GI50 [41] was 24.9 µM (inactive) and the GI50 [42] was 23.2 µM (inactive). For the same compound, the GI50 [43] was 34 µM (inactive), the GI50 [44] was 28.6 µM (inactive) and the GI50 [45] was 38.1 µM (inactive). For the same compound, the GI50 [46] was 21.4 µM (inactive), the GI50 [47] was 18.1 µM (inactive) and the GI50 [59] was 18.8 µM (inactive). For the same compound, the GI50 [48] was 32.4 µM (inactive), the GI50 [49] was 27.7 µM (inactive) and the GI50 [50] was 25.6 µM (inactive). For the same compound, the GI50 [51] was 40.7 µM (inactive), the GI50 [52] was 25.5 µM (inactive) and the GI50 [53] was 35 µM (inactive). The GI50 [54] was 17.9 µM (inactive).
